The subject of assay [1] is Paecilomyces variotti 22319(QC). Description: MIC determination (NCCLS M27A/M38P broth dilution). The class given is cell-based. A general note: In broth dilution the organism is exposed to a series of concentrations in liquid medium.
For assay [2], the system named is Candida tropicalis 750. Description: MIC determination (NCCLS M27A/M38P broth dilution). In kind it is cell-based.
In assay [3] the test system is Candida albicans Y-01-19. Description: MIC determination (NCCLS M27A/M38P broth dilution). The class given is cell-based.
Assay [4] has as its system Cryptococcus neoformans M 106. Description: MIC determination (NCCLS M27A/M38P broth dilution). In kind it is cell-based.
The test system of assay [5] is Candida glabrata 90030. Description: MIC determination (NCCLS M27A/M38P broth dilution). The class given is cell-based.
Assay [6] relates to Candida albicans 1122. Description: MIC determination (NCCLS M27A/M38P broth dilution). The class given is cell-based.
Assay [7] deals with Candida krusei 766.1. Description: MIC determination (NCCLS M27A/M38P broth dilution). The class given is cell-based.
Assay [8] concerns Candida krusei 6258 (QC). Kind of assay: MIC determination (NCCLS M27A/M38P broth dilution). In kind it is cell-based.
Assay [9] relates to Aspergillus fumigatus Si-I. Description: MIC determination (NCCLS M27A/M38P broth dilution). In kind it is cell-based.
Assay [10] has as its system Candida parapsilosis 22019 (QC). Description: MIC determination (NCCLS M27A/M38P broth dilution). The class given is cell-based.
Assay [11] has as its system Aspergillus fumigatus 1008. Kind of assay: MIC determination (NCCLS M27A/M38P broth dilution). The class given is cell-based.
The test system of assay [12] is Cryptococcus neoformans. The settings on record: cited from earlier work.
Assay [13] concerns the target ergosterol P450DM (Candida albicans, UniProt P10613). The settings on record: cited from earlier work.
Assay [14] deals with ergosterol P450DM. The settings on record: cited from earlier work.
[15] abbreviates: Paecilomyces variotti 22319(QC), RPMI 1640, MOPS pH 7, read-out: MIC.
Where [16] appears, read: RPMI 1640, MOPS pH 7, read-out: MIC.
Setting [17] is: Y0119, RPMI 1640, MOPS pH 7, read-out: MIC.
The mark [18] stands for this setting: M106, RPMI 1640, MOPS pH 7, read-out: MIC.
Setting [19] is: Nakaseomyces glabratus, RPMI 1640, MOPS pH 7, read-out: MIC.
Setting [20] is: Pichia kudriavzevii, RPMI 1640, MOPS pH 7, read-out: MIC.
Where [21] appears, read: Pichia kudriavzevii, Candida krusei 6258 (QC), RPMI 1640, MOPS pH 7, read-out: MIC.
[22] abbreviates: Aspergillus fumigatus 1008, RPMI 1640, MOPS pH 7, read-out: MIC.
Setting [23] is: Paecilomyces variotti 22319(QC), RPMI 1640, MOPS pH 7.
The mark [24] stands for this setting: Candida krusei 6258 (QC), RPMI 1640, MOPS pH 7.
Setting [25] is: Aspergillus fumigatus Si-I, RPMI 1640, MOPS pH 7.
The mark [26] stands for this setting: Aspergillus fumigatus 1008, RPMI 1640, MOPS pH 7.

In brackets after ≈: the same amount, converted by molar mass. Like-named read-outs stand apart in the source and are kept apart here. Where only a bound is given, the exact number is not on record here.

The MIC is the smallest concentration in the dilution series that meets the test's criterion for growth inhibition.

Chain of ergosterol P450DM (Candida albicans, UniProt P10613) (P10613 whole entry): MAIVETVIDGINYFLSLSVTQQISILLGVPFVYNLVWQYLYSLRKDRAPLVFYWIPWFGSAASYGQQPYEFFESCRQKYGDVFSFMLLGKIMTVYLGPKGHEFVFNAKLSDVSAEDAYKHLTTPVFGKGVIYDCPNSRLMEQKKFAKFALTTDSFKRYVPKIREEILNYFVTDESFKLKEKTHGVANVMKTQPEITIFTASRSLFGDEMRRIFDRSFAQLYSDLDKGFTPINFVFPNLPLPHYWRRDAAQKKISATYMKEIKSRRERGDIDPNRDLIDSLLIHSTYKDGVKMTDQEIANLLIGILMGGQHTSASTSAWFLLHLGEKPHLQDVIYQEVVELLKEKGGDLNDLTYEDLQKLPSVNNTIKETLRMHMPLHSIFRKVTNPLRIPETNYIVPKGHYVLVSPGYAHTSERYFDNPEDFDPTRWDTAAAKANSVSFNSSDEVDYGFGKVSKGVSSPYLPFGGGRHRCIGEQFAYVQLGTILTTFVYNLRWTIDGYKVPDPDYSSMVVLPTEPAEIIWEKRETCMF

On to `OC(Cn1cncn1)(Cn1cncn1)c1ccc(F)cc1F` [FLU, FLUCONAZOLE], for which the MIC in assay [1] (setting [15]) amounted to 2 µg/mL (≈ 6.53 µM); in assay [2] (setting [16]) it was 2 µg/mL (≈ 6.53 µM); in assay [3] (setting [17]), 16 µg/mL (≈ 52.2 µM); in [4] (setting [18]), 4 µg/mL (≈ 13.1 µM); in assay [5] (setting [19]) it was 16 µg/mL (≈ 52.2 µM); in assay [6] (setting [16]) it was 0.5 µg/mL (≈ 1.63 µM). Also, the MIC in assay [7] (setting [20]) was 64 µg/mL (≈ 209 µM); in assay [8] (setting [21]), 32 µg/mL (≈ 104 µM); in [9] (Aspergillus fumigatus, pH 7), greater than 128 µg/mL; in [10] (setting [16]), 2 µg/mL (≈ 6.53 µM); in assay [11] (Aspergillus fumigatus, 1008, pH 7), greater than 128 µg/mL.

Consider `CC[C@H](C)C[C@H](C)CCCCCCCCC(=O)N[C@H]1C[C@@H](O)[C@@H](NCCN)NC(=O)[C@@H]2[C@@H](O)CCN2C(=O)[C@H]([C@H](O)CCN)NC(=O)[C@H]([C@H](O)[C@@H](O)c2ccc(O)cc2)NC(=O)[C@@H]2C[C@@H](O)CN2C(=O)[C@H]([C@@H](C)O)NC1=O` [caspofungin, Caspofungin], for which, in assay [12], the “activity against Cryptococcus neoformans” value is “not active”.

Regarding `C[C@@H](c1ncncc1F)[C@](O)(Cn1cncn1)c1ccc(F)cc1F` [VORI, VORICONAZOLE], the minimal inhibitory concentration (MIC) came to 0.06 µg/mL (≈ 0.172 µM) in [1] (setting [15]); 0.016 µg/mL (≈ 0.0458 µM) in assay [2] (setting [16]); 0.5 µg/mL (≈ 1.43 µM) in assay [3] (setting [17]); 0.06 µg/mL (≈ 0.172 µM) in [4] (setting [18]); 1 µg/mL (≈ 2.86 µM) in assay [5] (setting [19]); 0.16 µg/mL (≈ 0.458 µM) in assay [6] (setting [16]). Moreover, the MIC came out at 1 µg/mL (≈ 2.86 µM) in assay [7] (setting [20]); 0.25 µg/mL (≈ 0.716 µM) in assay [8] (setting [21]); 0.25 µg/mL (≈ 0.716 µM) in assay [9] (Aspergillus fumigatus Si-I, RPMI 1640, MOPS pH 7, read-out: MIC); 0.03 µg/mL (≈ 0.0859 µM) in assay [10] (setting [16]); 0.25 µg/mL (≈ 0.716 µM) in [11] (setting [22]). The “greater inhibition of ergosterol P450DM compared to fluconazole” value in assay [13] is 1.6 fold; in [14], 160 fold.

As to `C[C@@H](n1ccn(-c2ccc(OCC(F)(F)C(F)F)cc2)c1=S)[C@](O)(Cn1cncn1)c1ccc(F)cc1F` [compound 6, 1-[(1R,2R)-2-(2,4-Difluorophenyl)-2-hydroxy-1-methyl-3-(1H-1,2,4-triazol-1-yl)propyl]-3-[4-(2,2,3,3-tetrafluoropropoxy)phenyl]-2-(1H,3H)-thioimidazolone], the MIC entry was “Long trailing effect” in assay [1] (setting [23]); less than 0.00025 µg/mL in assay [2] (RPMI 1640, MOPS pH 7); 0.5 µg/mL (≈ 0.897 µM) in assay [3] (RPMI 1640, MOPS pH 7); less than 0.00025 µg/mL in assay [4] (RPMI 1640, MOPS pH 7); 2 µg/mL (≈ 3.59 µM) in assay [5] (RPMI 1640, MOPS pH 7); less than 0.00025 µg/mL in [6] (RPMI 1640, MOPS pH 7). Also, the MIC in [7] (RPMI 1640, MOPS pH 7) was 0.5 µg/mL (≈ 0.897 µM); in [8] (setting [24]) it was 0.125 µg/mL (≈ 0.224 µM); in assay [9] (setting [25]), 0.016 µg/mL (≈ 0.0287 µM); in assay [10] (RPMI 1640, MOPS pH 7), less than 0.00025 µg/mL; in [11] (setting [26]) it was 0.125 µg/mL (≈ 0.224 µM).

Turning to `CCC(C)n1ncn(-c2ccc(N3CCN(c4ccc(OCC5COC(Cn6cncn6)(c6ccc(Cl)cc6Cl)O5)cc4)CC3)cc2)c1=O` (centres unmarked) [ITRA, ITRACONAZOLE], the MIC is 0.125 µg/mL (≈ 0.177 µM) in [1] (Paecilomyces, pH 7); 0.004 µg/mL (≈ 0.00567 µM) in [2] (setting [16]); 0.25 µg/mL (≈ 0.354 µM) in assay [3] (setting [17]); 0.03 µg/mL (≈ 0.0425 µM) in assay [4] (setting [18]); 0.5 µg/mL (≈ 0.709 µM) in assay [5] (setting [19]); 0.016 µg/mL (≈ 0.0227 µM) in assay [6] (setting [16]). The MIC amounted to 0.25 µg/mL (≈ 0.354 µM) in assay [7] (setting [20]); 0.125 µg/mL (≈ 0.177 µM) in assay [8] (Pichia kudriavzevii, pH 7); 0.125 µg/mL (≈ 0.177 µM) in assay [9] (Aspergillus fumigatus, pH 7); 0.03 µg/mL (≈ 0.0425 µM) in [10] (setting [16]); 0.25 µg/mL (≈ 0.354 µM) in assay [11] (setting [22]).

For `C[C@@H](n1ccn(-c2ccc(-n3ncnn3)cc2)c1=S)[C@](O)(Cn1cncn1)c1ccc(F)cc1F` [compound 5, 1-[(1R,2R)-2-(2,4-Difluorophenyl)-2-hydroxy-1-methyl-3-(1H-1,2,4-triazol-1-yl)propyl]-3-[4-(2H-2-tetrazolyl)phenyl]-2-(1H,3H)-thioimidazolone], the MIC result in assay [1] (setting [23]) is “Long trailing effect”; in [2] (RPMI 1640, MOPS pH 7), less than 0.00025 µg/mL; in assay [3] (RPMI 1640, MOPS pH 7), 0.5 µg/mL (≈ 1.01 µM); in assay [4] (RPMI 1640, MOPS pH 7), less than 0.00025 µg/mL; in assay [5] (RPMI 1640, MOPS pH 7), 1 µg/mL (≈ 2.02 µM); in [6] (RPMI 1640, MOPS pH 7), less than 0.00025 µg/mL. Moreover, the MIC was 0.5 µg/mL (≈ 1.01 µM) in assay [7] (RPMI 1640, MOPS pH 7); 0.06 µg/mL (≈ 0.121 µM) in assay [8] (setting [24]); 0.016 µg/mL (≈ 0.0323 µM) in assay [9] (setting [25]); less than 0.00025 µg/mL in [10] (RPMI 1640, MOPS pH 7); 0.125 µg/mL (≈ 0.252 µM) in assay [11] (setting [26]).

Take `C[C@@H](n1ccn(-c2ccc(-n3cnnn3)cc2)c1=S)[C@](O)(Cn1cncn1)c1ccc(F)cc1F` [compound 4, 1-[(1R,2R)-2-(2,4-Difluorophenyl)-2-hydroxy-1-methyl-3-(1H-1,2,4-triazol-1-yl)propyl]-3-[4-(1H-1-tetrazolyl)phenyl]-2-(1H,3H)-thioimidazolone]: the MIC in assay [1] (setting [23]) was found to be 0.016 µg/mL (≈ 0.0323 µM); in assay [2] (RPMI 1640, MOPS pH 7) it was 0.004 µg/mL (≈ 0.00807 µM); in assay [3] (RPMI 1640, MOPS pH 7) it was 0.25 µg/mL (≈ 0.505 µM); in assay [4] (RPMI 1640, MOPS pH 7), 0.03 µg/mL (≈ 0.0605 µM); in assay [5] (RPMI 1640, MOPS pH 7), 0.06 µg/mL (≈ 0.121 µM); in [6] (RPMI 1640, MOPS pH 7), 0.06 µg/mL (≈ 0.121 µM). The minimal inhibitory concentration (MIC) is 0.25 µg/mL (≈ 0.505 µM) in assay [7] (RPMI 1640, MOPS pH 7); 0.25 µg/mL (≈ 0.505 µM) in assay [8] (setting [24]); 0.25 µg/mL (≈ 0.505 µM) in assay [9] (setting [25]); less than 0.00025 µg/mL in assay [10] (RPMI 1640, MOPS pH 7); 0.25 µg/mL (≈ 0.505 µM) in assay [11] (setting [26]).

In the case of `C[C@@H]1[C@H](O)[C@@H](C)/C=C/C=C/C=C/C=C/C=C/C=C/C=C/[C@H](O[C@@H]2O[C@H](C)[C@@H](O)[C@H](N)[C@@H]2O)C[C@@H]2O[C@](O)(C[C@@H](O)C[C@@H](O)[C@H](O)CC[C@@H](O)C[C@@H](O)CC(=O)O[C@H]1C)C[C@H](O)[C@H]2C(=O)O` [AMB, AMPHOTERICIN B], the MIC worked out at 0.25 µg/mL (≈ 0.271 µM) in assay [1] (setting [23]); 0.125 µg/mL (≈ 0.135 µM) in assay [2] (RPMI 1640, MOPS pH 7); 0.25 µg/mL (≈ 0.271 µM) in [3] (RPMI 1640, MOPS pH 7); 0.06 µg/mL (≈ 0.0649 µM) in [4] (RPMI 1640, MOPS pH 7); 0.5 µg/mL (≈ 0.541 µM) in assay [5] (RPMI 1640, MOPS pH 7); 0.25 µg/mL (≈ 0.271 µM) in assay [6] (RPMI 1640, MOPS pH 7). Moreover, the MIC in [7] (RPMI 1640, MOPS pH 7) turned out to be 0.25 µg/mL (≈ 0.271 µM); in assay [8] (setting [24]), 0.25 µg/mL (≈ 0.271 µM); in assay [9] (setting [25]), 0.5 µg/mL (≈ 0.541 µM); in assay [10] (RPMI 1640, MOPS pH 7), 0.125 µg/mL (≈ 0.135 µM); in [11] (setting [26]), 0.25 µg/mL (≈ 0.271 µM).

The values are drawn from patent US20050131041A1, “Azole derivatives as antifungal agents” (priority 2002, published 2005).
